Consider ten molecules from patent US7608585B2, “Compositions for inhibition of necrosis induced by a neurotrophin” (Neurotech Pharmaceuticals Co., Ltd., priority 2004, dated 2009).

Like-named read-outs stand apart in the source and are kept apart here.

Data set [1] concerns BDNF-induced neuronal death in cortical cell cultures. Description: Protection against BDNF-induced neuronal death, LDH efflux. The format is cell-based, Rat. The conditions noted are these: for Swelling of neuronal cell body and neuronal death: 36 hr after exposure to BDNF, 3-10 nM DPI, 10-30 μM AEBSF; for BDNF neurotoxicity / BDNF-induced neuronal cell necrosis (LDH efflux): 100 ng/ml BDNF, 36 hr, 100 μg/ml anti-BDNF antibody, 100 μM trolox, 1 μg/ml cycloheximide. The method, then:
Cortical cell cultures (DIV 12-15) were exposed to 100 ng/ml BDNF, alone or in the presence NADPH oxidase inhibitors, 3-10 nM DPI, 10-30 μM 4-(2-amonoethyl)-benzensulfonyl fluoride (AEBSF), or 1 μM 2-Hydroxy-TTBA ((2-Hydroxy-5-(2,3,5,6-tetrafluoro-4-trifluoromethyl-benzylamino)-benzoic acid). Neuronal death was analyzed 36 hr later by measurement of LDH efflux into the bathing medium.

In data set [2] the test system is ROS in cortical neurons. Nature of the data set: ROS imaging by oxidized DCDHF-DA (DCF) and hydroethidine fluorescence. The conditions noted are these: for BDNF-induced production of [ROS]i: concurrent addition with 100 ng/ml BDNF, 32 hr. The format is cell-based, Rat. The method, then:
Cortical cell cultures (DIV 12-15) grown on glass bottom dishes were loaded with 10 μM dichlorodihydro fluorescein diacetate (DCDHF-DA) or 5 μM hydroethidium (Molecular Probes, Eugene, Oreg.) plus 2% Pluronic F-127 in HEPES-buffered control salt solution (HCSS) buffer containing (in mM): 120 NaCl, 5 KCl, 1.6 MgCl2, 2.3 CaCl2, 15 glucose, 20 HEPES, and 10 NaOH. Cultures were incubated for 20 min at 37° C., and washed three times with HCSS buffer. […] The fluorescence images were analyzed using a QuantiCell 700 system (Applied imaging, UK).
Superoxide production through activation of NADPH oxidase was analyzed by measuring the oxidation of HEt and DCDHF to ethidium and DCF, respectively, in cortical neurons after exposure to a sham operation, 100 ng/ml BDNF, or 100 ng/ml BDNF plus 3 nM DPI for 32 hr (FIG. 15).

In data set [3] the test system is Neuron-rich cortical cell cultures. Description: Serum deprivation-induced neuronal apoptosis, counting viable neurons. The format is cell-based, Rat. The conditions noted are these: for Anti-apoptotic action of BDNF on inclusion of the substance: 100 ng/ml BDNF plus 3 nM DPI or 100 μM trolox; for Serum deprivation-induced neuronal apoptosis: alone, without BDNF; for Serum deprivation-induced neuronal apoptosis / Delayed neuronal death evolving in the presence of BDNF: 3 nM DPI, 100 μM trolox; for Delayed neuronal death evolving in the presence of BDNF: concurrent addition, 48 hr. As to the method:
(§1) For neuron-glia mixed cultures, 10 μM cytosine arabinoside (Ara C) was included to stop the overgrowth of non-neuronal cells to cultures at DIV 5-7 when glial cells were confluent underneath neurons. After 2 days, cultures were then fed with plating medium lacking fetal serum twice a week. Cultures were maintained at 37° C. in a humidified 5% CO2 incubator. For neuron-rich cultures (>95%), 2.5 μM Ara C was included to cultures at 2-3 days in vitro (DIV 2-3) as previously described (Gwag et al., 1997).
(§2) Mixed cortical cell cultures (DIV 12-14) were rinsed in serum free MS (MEM supplemented with 26.5 mM sodium bicarbonate and 21 mM glucose) and then exposed to various concentrations of NGF, BDNF or NT-3 in serum free MS. Neuronal cell death was analyzed by measuring the level of lactate dehydrogenase (LDH) released into the bathing medium. The percent neuronal death was normalized to the mean LDH value released after a sham control (defined as 0%) or continuous exposure to 500 μM NMDA for 24 hr (defined as 100%) The latter produces complete neuronal death within 24 hr. For experiments for serum deprivation, neuron-rich cortical cell cultures (DIV 7) were placed into serum free MS containing 1 μM MK-801 as described (Gwag et al., 1995). Neuronal death was analyzed 24 and 48 hr later by counting viable neurons excluding Trypan Blue satained.
Neuron-rich cortical cell cultures (DIV 7) were deprived of serum, alone (serum deprivation) or in the presence of 100 ng/ml BDNF, 100 ng/ml BDNF plus 3 nM DPI, 3 nM DPI, 100 ng/ml BDNF plus 100 μM trolox, or 100 μM trolox. Neuronal death was assessed 24 hr and 48 hr later by counting viable neurons.

Data set [4] concerns free radical neurotoxicity. The following applies: as anti-oxidants; cited from earlier work.
For data set [5], the system named is Mixed cortical cell cultures. The class given is cell-based, Rat. As to the method:
Rat cortical cell cultures were prepared from the 17-day-old fetal brain and the neocortices were mechanically triturated as previously described (Noh and Gwag, 1997). Dissociated cells were plated on 6-well plates and 24-well plates (approximately 3 cortices per plate), or on glass bottom 35 mm dishes for ROS imaging. Plating media consist of Eagle's minimal essential media (MEM, Earle's salts, supplied glutamine-free) supplemented with 5% horse serum, 5% fetal bovine serum, 21 mM glucose, 26.5 mM bicarbonate and 2 mM L-glutamine.
as §1
To examine if neurotrophins would induce neuronal necrosis, BDNF-induced neuronal death was analyzed by measuring the level of lactate dehydrogenase (LDH) released into the bathing medium.
as §2
Neuronal cell death was assessed by measurement of LDH efflux to the bathing medium, mean±SEM (n=16 culture wells per condition). *, Significant difference from the relevant control (sham washed control), at P<0.05 using analysis of variance and Student-Newman-Keuls test.

In data set [6] the test system is cortical neurons. The class given is cell-based. As to the method:
To examine the patterns of BDNF-induced neuronal death, we observed neurons from 32 hrs after a sham wash or continuous exposure to 100 ng/ml BDNF under phase contrast or transmission electron microscope.
Cultures were fixed in Karnovskys fixative solution (1% paraformaldehyde, 2% glutaraldehyde, 2 mM calcium cholride, 100 mM cacodylate buffer, pH 7.4) for 2 hr, washed with cacodylate buffer, and post-fixed in 1% osmium tetroxide and 1.5% potassium ferrocyanide for 1 hr. Cells were then stained en bloc in 0.5% uranyl acetate, dehydrated through graded ethanol series, and embedded in Poly/Bed 812 resin (Pelco, Calif.). Cells were sectioned using Reichert Jung Ultracut S (Leica, Cambridge, UK). After staining cells with uranyl acetate and lead citrate, cells were observed and photographed under Zeiss EM 902A.

The mark [7] stands for this setting: 36 hr after 100 ng/ml BDNF, 3 nM DPI, 10 μM AEBSF, 1 μM 2-Hydroxy-TTBA.

With `NCCc1ccc(S(=O)(=O)F)cc1` [AEBSF, 4-(2-amonoethyl)-benzensulfonyl fluoride], the “Neuronal necrosis (LDH efflux)” value in data set [1] (setting [7]) was “significantly reduced”. Also, in data set [1], the “Swelling of neuronal cell body and neuronal death” value was “significantly reduced”.

Turning to `c1ccc2c(c1)[I+]c1ccccc1-2` [DPI, diphenylene iodonium], in data set [1], the “Neuronal necrosis (LDH efflux)” value is “significantly reduced”; the “Swelling of neuronal cell body and neuronal death” value is listed as “significantly reduced”. Also, in data set [2], the “BDNF-induced superoxide production (oxidation of HEt and DCDHF)” value is recorded as “completely blocked”. Besides, in data set [3], the “Anti-apoptotic action of BDNF on inclusion of the substance” value is recorded as “insensitive”, the “Serum deprivation-induced neuronal apoptosis” value is given as “Neither DPI nor trolox alone reduced” and the “Delayed neuronal death evolving in the presence of BDNF” value is on record as “attenuated”.

As to `COc1ccc(CNc2ccc(O)c(C(=O)O)c2)cc1` [MBAS], the Free radical neurotoxicity entry in data set [4] was “block free radical neurotoxicity”.

As to `O=C(O)c1cc(NCc2c(F)c(F)c(C(F)(F)F)c(F)c2F)ccc1O` [2-Hydroxy-TTBA, 2-Hydroxy-5-(2,3,5,6-tetrafluoro-4trifluoromethyl-benzylamino)-benzoic acid], the Free radical neurotoxicity entry in data set [4] is “block free radical neurotoxicity”. In data set [1] (setting [7]), the “Neuronal necrosis (LDH efflux)” value is given as “significantly reduced”.

In the case of `O=C(O)c1cc(NCc2ccc(F)cc2)ccc1O` [FBAS, 5-(4-fluorobenxyl) aminosalicylic acid], the Free radical neurotoxicity result in data set [4] is “block free radical neurotoxicity”.

As to `Cc1c(C)c2c(c(C)c1O)CCC(C)(C(=O)O)O2` (stereo not shown) [trolox], the “BDNF neurotoxicity / BDNF-induced neuronal cell necrosis (LDH efflux)” value in data set [1] is given as “blocked”. Also, the “BDNF-induced production of [ROS]i” value in data set [2] is on record as “prevented”. Besides, in data set [3], the “Anti-apoptotic action of BDNF on inclusion of the substance” value is on record as “insensitive”, the “Serum deprivation-induced neuronal apoptosis” value is listed as “Neither DPI nor trolox alone reduced” and the “Delayed neuronal death evolving in the presence of BDNF” value is “attenuated”.

Take `C[C@@H]1C[C@@H]([C@H](O)CC2CC(=O)NC(=O)C2)C(=O)[C@@H](C)C1` [cycloheximide, reference compound]: the “BDNF neurotoxicity / BDNF-induced neuronal cell necrosis (LDH efflux)” value in data set [1] was “blocked”. Further, the “BDNF-induced production of [ROS]i” value in data set [2] is reported as “prevented”.

With NT-3: neurotrophin-3, a neurotrophin, in data set [5], the “Cell necrosis induced by neurotrophin” value is recorded as “derives cell necrosis” and the “Neuronal death (LDH efflux to the bathing medium)” value is given as “Near complete neuronal death”.

B1: BDNF: brain-derived neurotrophic factor, a neurotrophin (protein, UniProt P23560 19-247, looked up)
Neurotrophic factor BDNF …: APMKEANIRGQGGLAYPGVRTHGTLESVNGPKAGSRGLTSLADTFEHVIEELLDEDQKVRPNEENNKDADLYTSRVMLSSQVPLEPPLLFLLEEYKNYLDAANMSMRVRRHSDPARRGELSVCDSISEWVTAADKKTAVDMSGGTVTVLEKVPVSKGQLKQYFYETKCNPMGYTKEGCRGIDKRHWNSQCRTTQSYVRALTMDSKKRIGWRFIRIDTSCVCTLTIKRGR
On to B1, for which, in data set [5], the “Cell necrosis induced by neurotrophin” value is listed as “derives cell necrosis” and the “Neuronal death (LDH efflux to the bathing medium)” value was “Near complete neuronal death”. Moreover, the “Pattern of neuronal death under transmission electron microscope” value in data set [6] is given as “induced neuronal necrosis”.

B2: NT-4/5: a neurotrophin (protein, UniProt P34130 81-210, looked up)
Neurotrophin-4: GVSETAPASRRGELAVCDAVSGWVTDRRTAVDLRGREVEVLGEVPAAGGSPLRQYFFETRCKADNAEEGGPGAGGGGCRGVDRRHWVSECKAKQSYVRALTADAQGRVGWRWIRIDTACVCTLLSRTGRA
For the molecule B2, the “Cell necrosis induced by neurotrophin” value in data set [5] was “derives cell necrosis”.
